Test results from patent US20220226270A1, “VERY-LONG-CHAIN POLYUNSATURATED FATTY ACIDS, ELOVANOID HYDROXYLATED DERIVATIVES, AND METHODS OF USE” (Board of Supervisors of Louisiana State University and …, priority 2019, published 2022).

Assays:
[1] = system: primary human RPE cells; assay: UOS-induced cell death in primary human RPE cells (Hoechst staining); type: cell-based; conditions: for UOS-induced primary human RPE cell death: UOS for 16 h + 32:6n3 or 34:6n3 (FIG. 8C); for cell death (apoptosis): UOS with H2O2 (800 μM), 16 h, VLC-PUFAs 3 μM each, NPD1 200 nM, UOS alone 50% cell death
Procedure: Exposure of RPE cells to UOS and VLC-PUFA: For cell viability assay experiments hRPE cells were treated concomitantly with NPD1 (200 nM), 32-6, 34-6 (3 μM each) fatty acids or both 32-6 and 34-6 simultaneously. The hRPE medium was supplemented with 3 μM of 32-6 and 34-6 for the entire duration of the experiment. 15 lox-1 inhibitor (10 μM) was added to the cells 1 hour prior the OS induction and kept throughout the experiment. Cells were fixed with 4% PFA and stained with Hoescht.
To assess cell death, hRPE and ARPE-19 cells were fixed with methanol for 15 mins, washed with 1× PBS then loaded with 2 μM Hoechst dissolved in a Locke's solution (Promega) and incubated for another 15 mins before imaging. Cells were then viewed by using a Zeiss LSM 510 confocal microscope under UV fluorescence. Images were recorded and cell apoptosis was assessed by using an automated unbiased method.
To test the efficacy of 32:6n3 and 34:6n3 VLC-PUFAs to modulate human RPE cell homeostasis and survival rates, human RPE cells undergoing UOS were incubated with both VLC-PUFAs (3 μM each) and NPD1 (200 nM) 16 h. The addition of H2O2 (800 μM) induced apoptosis (50% cell death).
hRPE cells, formerly serum deprived for 12 h, were incubated with the 15 lipoxygenase 1 (15-LOX-1) inhibitor (PD146176) (10 μM for 1 h), then bathed with 600 μM H2O2/TNF-α in conjunction with a mixture of 32:6n3 and 34:6n3 (3 μM each) for 16 h. The 15-LOX-1 inhibitor sensitizes cells; therefore, a lower concentration of H2O2 than in the cytoprotection experiment was used.

[2] = system: hippocampal mixed neuronal culture; assay: Oxygen glucose deprivation (OGD) in hippocampal mixed neuronal culture; type: cell-based, rat; conditions: 500 nM, DIV 12, 90 min OGD (FIG. 18G)
Text: (§1) Primary cultures of cortical neurons: Primary cultures of cortical and hippocampal neurons were harvested from 18-day-old embryos (E18) taken from timed-pregnant, two-month-old Sprague-Dawley (SD) rats (Charles River Lab., Wilmington, Mass.). Briefly, timed-pregnant SD rats were euthanized and embryos were collected in sterile conditions. Embryonic brains were dissected out by forceps on ice and placed in a petri dish containing ice-cold Hank's Balanced Salt Solution (HBSS) (GIBCO). Meninges were removed under a dissecting microscope and cortical tissues were chopped into small pieces with micro-spring scissors. These tissues were transferred to 15 ml tubes containing trypsin-EDTA (0.025% in HBSS) and DNase I. The tubes were incubated in 37° C. chamber for 15 mins and were agitated every 5 mins. After stopping the trypsinization with 5 ml 10% FBS, these tissues were triturated 15 times with a fire polished Pasteur pipet. Cell clumps were left to settle for 2 mins and the supernatant was transferred to a 15 ml Eppendorf tube. The supernatant was filtered through a 70 μm pore-sized filter (Corning cell strainer) and centrifuged for 5 mins at 1000 rpm. The cells were then resuspended in Neurobasal medium (GIBCO) containing 2% B27 (GIBCO) and 2% N2 (GIBCO) supplements, along with 0.5 mM glutamine, 50 U/ml penicillin/streptomycin.
Oxygen glucose deprivation (OGD), NMDA excitotoxicity or uncompensated oxidative stress (UOS) exposure: An in vitro oxygen glucose deprivation (OGD) model was established. Primary cortical neurons were cultured from SD rat embryos. On day in vitro (DIV) 12, cells were washed with phosphate-buffered saline and incubated in glucose-free Neurobasal medium (GIBCO) for 30 mins. The cells were then placed in a modular incubator chamber and incubated in an anaerobic chamber (95% N2, 5% CO2) at 37° C. for 90 mins for OGD.
After 90 mins of OGD exposure, cells were returned to the original medium (Neurobasal medium (GIBCO) containing 2% B27 (GIBCO) and 2% N2 (GIBCO) supplements, along with 0.5 mM glutamine, 50 U/ml penicillin/streptomycin) and placed in a normoxic chamber (37° C., 5% CO2) for 2 h. Then the medium was changed with medium containing either ELV-N32 or ELV-N34 [500 nM] and maintained in a normoxic chamber (37° C., 5% CO2) for 12 h, after which cells were sampled and assayed for cell viability using different methods as previously described (25-28). […]
One 4×4 tile mosaic was acquired from the center of each well using a Zeiss 510 Meta laser confocal microscope and LSM 510 Meta software. […] An Otsu auto threshold was applied to each image of Hoechst-stained nuclei, and the area of each detected object was recorded. […]

[3] = system: cerebral cortical mixed neuronal cells; assay: NMDA excitotoxicity in cerebral cortical mixed neuronal cultures; type: cell-based, rat; conditions: for synergy with NPD1 in neuroprotection against NMDA excitotoxicity: ELV 200 nM + NPD1 100 nM, NMDA 100 μM, 12 h (FIG. 16A); for NMDA dose-dependent increase of apoptotic nuclei: NMDA 25, 50 or 100 μM; for neuroprotection on addition of MK801 and NPD1 together, versus ELV alone: NMDA excitotoxicity; for frequency distribution of pyknotic vs non-pyknotic nuclei (nuclear size peak) after NMDA: 500 nM, NMDA 100 μM 12 h, DIV 12, Hoechst
Text: as §1
(§2) Cells were counted using a Neubauer hemocytometer. 1×10^6 cells were seeded on poly-D-lysine-coated 12 well cell culture dish (CORNING) and cultured in incubator (37° C., 5% CO2). Culture medium was first replaced after 24 h, then half of the medium was replaced with fresh medium every three days. As a result, approximately, 90% purity of neurons was obtained as determined by class-III-β tubulin, GFAP and Hoechst 33258 staining. Cells were maintained in culture for about 2 weeks until they were exposed to uncompensated oxidative stress, OGD, or NMDA excitotoxicity.
(§3) After 90 mins of OGD exposure, cells were returned to the original medium (Neurobasal medium (GIBCO) containing 2% B27 (GIBCO) and 2% N2 (GIBCO) supplements, along with 0.5 mM glutamine, 50 U/ml penicillin/streptomycin) and placed in a normoxic chamber (37° C., 5% CO2) for 2 h. Then the medium was changed with medium containing either ELV-N32 or ELV-N34 [500 nM] and maintained in a normoxic chamber (37° C., 5% CO2) for 12 h, after which cells were sampled and assayed for cell viability using different methods as previously described (25-28). Cerebral cortical mixed neuronal cells or hippocampal cells in culture were exposed to either NMDA or uncompensated oxidative stress (UOS) for 12 h by addition of either NMDA (25 μM, 50 μM, or 100 μM) concentration or by the addition of TNFα (10 ng/mL) and H2O2 (50 μM, 100 μM, or 200 μM). Cell viability and neuroprotection in the presence of ELV-N32, ELV-N34, 32:6, or 34:6 were assayed after 12 h.
(§4) Hoechst staining and unbiased image analysis: Cells were washed with 1× Dulbecco's Phosphate Buffered Saline (DPBS) containing no calcium or magnesium (GIBCO) and fixed for 10 mins using ice-cold 4% paraformaldehyde (PFA) followed by 15 mins incubation in 100% methanol. Cells were washed with 1× Phosphate Buffered Saline (PBS) pH 7.4 (GIBCO) and incubated in PBS containing 20 μM Hoechst 33258 (Molecular Probes) for 20 mins. Cells were then washed 3 times with 1× PBS and stored in 1× PBS at 4° C. until they were imaged for microscopy.
(§5) One 4×4 tile mosaic was acquired from the center of each well using a Zeiss 510 Meta laser confocal microscope and LSM 510 Meta software. Images were imported into image analysis software ImageJ (National Institutes of Health, Bethesda, Md.) and batch processed using custom macros. An Otsu auto threshold was applied to each image of Hoechst-stained nuclei, and the area of each detected object was recorded. Objects with areas <10 μm^2 were excluded from analysis. To estimate percentage non-pyknotic nuclei, a size cutoff value was chosen above which objects were assumed to be non-pyknotic. […]

[4] = system: cerebral cortical mixed neuronal cells; assay: Uncompensated oxidative stress (TNFα plus H2O2) in cerebral cortical mixed neuronal cultures; type: cell-based, rat; conditions: for UOS dose-dependent increase of apoptotic nuclei: 200 nM (FIG. 16B); for neuroprotection against uncompensated oxidative stress: 200 nM, 12 h TNFα 10 ng/mL and H2O2 (50, 100 or 200 μM)
Text: as §1, §2, §3, §4, §5

| SMILES | UOS-induced primary human RPE cell death [1] | cell death (apoptosis) [1] | neuroprotection after OGD (Hoechst positive nuclei counting) [2] | UOS dose-dependent increase of apoptotic nuclei [4] | neuroprotection against uncompensated oxidative stress [4] | synergy with NPD1 in neuroprotection against NMDA excitotoxicity [3] | NMDA dose-dependent increase of apoptotic nuclei [3] | neuroprotection on addition of MK801 and NPD1 together, versus ELV alone [3] | frequency distribution of pyknotic vs non-pyknotic nuclei (nuclear size peak) after NMDA [3] | further results |
| --- | --- | --- | --- | --- | --- | --- | --- | --- | --- | --- |
| CC/C=C\C/C=C\C/C=C\C/C=C\C/C=C\C/C=C\CCCCCCCCCCCCC(=O)O [32:6n3, (14Z,17Z,20Z,23Z,26Z,29Z)-dotriaconta-14,17,20,23,26,29-hexaenoic acid] | cell death was prevented | 4% | showed neuroprotection | – | – | – | – | – | – | NMDA excitotoxicity (precursor, 250 nM) ([3]; 250 nM (FIG. 17 graph D)): attenuate NMDA excitotoxicity |
| CC/C=C\C/C=C\C/C=C\C/C=C\C/C=C\C/C=C\CCCCCCCCCCCCCCC(=O)O [34:6n3, (16Z,19Z,22Z,25Z,28Z,31Z)-tetratriaconta-16,19,22,25,28,31-hexaenoic acid] | cell death was prevented | 18% | showed neuroprotection | – | – | – | – | – | – | NMDA receptor-mediated excitotoxicity (precursor, 500 nM) ([3]; 500 nM (FIG. 16H)): attenuates |
| CC/C=C\C[C@H](O)\C=C/C=C/C=C/[C@H](O)C/C=C\C/C=C\CCCCCCCCCCCCC(=O)OC [ELV-N32-Me, methyl (14Z,17Z,20R,21E,23E,25Z,27S,29Z)-20,27-dihydroxydotriaconta-14,17,21,23,25,29-hexaenoate] | – | – | – | counteracted | evoked neuroprotection | showed synergy | compensated for | improved the neuroprotection | – | relative potency of combination with NPD1 ([3]; versus ELV-N32-Na and NPD1 together): more potent |
| CC/C=C\C[C@H](O)\C=C/C=C/C=C/[C@H](O)C/C=C\C/C=C\CCCCCCCCCCCCC(=O)[O-].[Na+] [ELV-N32-Na, sodium (14Z,17Z,20R,21E,23E,25Z,27S,29Z)-20,27-dihydroxydotriaconta-14,17,21,23,25,29-hexaenoate] | – | – | neuroprotection elicited | counteracted | evoked neuroprotection | showed synergy | compensated for | improved the neuroprotection | positive rightward shift | neuroprotection against uncompensated oxidative stress ([4]; listed as ELV-N32 Na): neuroprotection elicited |
| CC/C=C\C[C@H](O)\C=C/C=C/C=C/[C@H](O)C/C=C\C/C=C\CCCCCCCCCCCCCCC(=O)OC [ELV-N34-Me, methyl (16Z,19Z,22R,23E,25E,27Z,29S,31Z)-22,29-dihydroxytetratriaconta-16,19,23,25,27,31-hexaenoate] | – | – | – | – | – | – | – | – | positive rightward shift | – |
| CC/C=C\C[C@H](O)\C=C/C=C/C=C/[C@H](O)C/C=C\C/C=C\CCCCCCCCCCCCCCC(=O)[O-].[Na+] [ELV-N34-Na, sodium (16Z,19Z,22R,23E,25E,27Z,29S,31Z)-22,29-dihydroxytetratriaconta-16,19,23,25,27,31-hexaenoate] | – | – | neuroprotection elicited | – | neuroprotection elicited | – | – | – | – | – |
